# Laboratory results reported in article PMC6437697 (Journal of Medicinal Chemistry, 2019).
# Experiments:
# Assay in all cases: KINOMEscan
# Assay type in all cases: binding
# Details in all cases: read-out: % control activity remaining
# [1] = target: T1, BIKE (Homo sapiens, UniProt Q9NSY1)
# T1 construct: purchased Eurofins DiscoverX KINOMEscan
# [2] = target: T2, CAMK2G (Homo sapiens, UniProt Q13555)
# T2 construct: purchased Eurofins DiscoverX KINOMEscan
# [3] = target: T3, CLK1 (Homo sapiens, UniProt P49759)
# T3 construct: purchased Eurofins DiscoverX KINOMEscan
# [4] = target: T4, FLT3-autoinhibited (Homo sapiens, UniProt P36888)
# T4 construct: purchased Eurofins DiscoverX KINOMEscan
# T4 sequence (P36888 564-993 limits assumed): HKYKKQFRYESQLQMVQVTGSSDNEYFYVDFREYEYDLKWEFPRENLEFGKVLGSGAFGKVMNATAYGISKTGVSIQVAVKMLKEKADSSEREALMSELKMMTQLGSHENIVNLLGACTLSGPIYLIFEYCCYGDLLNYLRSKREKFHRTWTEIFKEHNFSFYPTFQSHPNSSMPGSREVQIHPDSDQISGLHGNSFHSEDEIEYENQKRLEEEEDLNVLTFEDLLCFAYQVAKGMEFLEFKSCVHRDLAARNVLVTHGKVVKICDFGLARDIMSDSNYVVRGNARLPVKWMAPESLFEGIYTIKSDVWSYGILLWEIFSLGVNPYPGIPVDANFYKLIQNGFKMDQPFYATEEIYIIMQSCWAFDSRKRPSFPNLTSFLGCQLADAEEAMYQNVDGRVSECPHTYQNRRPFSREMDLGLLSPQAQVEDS
# [5] = target: T5, KIT(V559D,V654A) (Homo sapiens, UniProt P10721, V559D/V654A)
# T5 construct: purchased Eurofins DiscoverX KINOMEscan
# [6] = target: T6, LRRK2 (Homo sapiens, UniProt Q5S007)
# T6 construct: purchased Eurofins DiscoverX KINOMEscan
# [7] = target: T7, MAP3K4 (Homo sapiens, UniProt Q9Y6R4)
# T7 construct: purchased Eurofins DiscoverX KINOMEscan
# [8] = target: T8, MELK (Homo sapiens, UniProt Q14680)
# T8 construct: purchased Eurofins DiscoverX KINOMEscan
# [9] = target: T9, NDR1 (Homo sapiens, UniProt Q15208)
# T9 construct: purchased Eurofins DiscoverX KINOMEscan
# [10] = target: T10, NEK7 (Homo sapiens, UniProt Q8TDX7)
# T10 construct: purchased Eurofins DiscoverX KINOMEscan
# [11] = target: T11, PIM3 (Homo sapiens, UniProt Q86V86)
# T11 construct: purchased Eurofins DiscoverX KINOMEscan
# [12] = target: T12, PKMYT1 (Homo sapiens, UniProt Q99640)
# T12 construct: purchased Eurofins DiscoverX KINOMEscan
# T12 sequence (Q99640 1-499): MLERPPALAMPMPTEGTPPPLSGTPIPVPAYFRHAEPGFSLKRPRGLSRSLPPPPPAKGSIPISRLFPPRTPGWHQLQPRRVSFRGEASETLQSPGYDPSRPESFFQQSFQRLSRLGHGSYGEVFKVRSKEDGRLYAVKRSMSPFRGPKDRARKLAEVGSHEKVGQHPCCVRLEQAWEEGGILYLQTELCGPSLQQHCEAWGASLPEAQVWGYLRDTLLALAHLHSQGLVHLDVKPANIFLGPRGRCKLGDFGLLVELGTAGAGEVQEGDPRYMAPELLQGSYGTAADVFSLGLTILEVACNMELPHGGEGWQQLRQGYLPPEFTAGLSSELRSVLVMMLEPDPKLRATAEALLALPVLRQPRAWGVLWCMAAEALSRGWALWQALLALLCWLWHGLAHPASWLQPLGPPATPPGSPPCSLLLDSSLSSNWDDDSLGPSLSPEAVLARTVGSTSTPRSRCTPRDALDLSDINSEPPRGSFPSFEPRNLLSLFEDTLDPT
# [13] = target: T13, RET (Homo sapiens, UniProt P07949)
# T13 construct: purchased Eurofins DiscoverX KINOMEscan
# [14] = target: T14, TTK (Homo sapiens, UniProt P33981)
# T14 construct: purchased Eurofins DiscoverX KINOMEscan
# T14 sequence (P33981 1-857): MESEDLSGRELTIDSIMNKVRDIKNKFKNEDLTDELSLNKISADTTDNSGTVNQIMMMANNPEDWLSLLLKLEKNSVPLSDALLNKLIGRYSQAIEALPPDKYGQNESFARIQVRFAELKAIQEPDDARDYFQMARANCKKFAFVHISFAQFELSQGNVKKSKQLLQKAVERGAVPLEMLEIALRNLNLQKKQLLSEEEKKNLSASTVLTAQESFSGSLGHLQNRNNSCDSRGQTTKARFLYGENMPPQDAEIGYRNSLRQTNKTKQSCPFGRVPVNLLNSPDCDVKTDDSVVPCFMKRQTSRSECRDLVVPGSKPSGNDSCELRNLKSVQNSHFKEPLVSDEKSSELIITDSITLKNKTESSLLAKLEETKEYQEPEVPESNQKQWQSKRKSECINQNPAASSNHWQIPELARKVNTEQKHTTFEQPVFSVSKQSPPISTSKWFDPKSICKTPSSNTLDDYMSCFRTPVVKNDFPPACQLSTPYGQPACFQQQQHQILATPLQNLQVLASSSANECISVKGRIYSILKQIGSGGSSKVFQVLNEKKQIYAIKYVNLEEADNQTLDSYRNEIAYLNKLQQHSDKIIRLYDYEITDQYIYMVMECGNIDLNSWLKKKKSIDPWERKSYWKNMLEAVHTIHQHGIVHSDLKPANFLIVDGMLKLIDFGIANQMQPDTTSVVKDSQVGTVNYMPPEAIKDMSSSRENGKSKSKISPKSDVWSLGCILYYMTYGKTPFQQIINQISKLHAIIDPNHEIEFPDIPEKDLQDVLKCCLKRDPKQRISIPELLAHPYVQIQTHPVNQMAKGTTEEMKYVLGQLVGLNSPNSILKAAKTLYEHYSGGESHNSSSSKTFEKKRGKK
# [15] = target: T15, TYK2(JH1domain-catalytic) (Homo sapiens, UniProt P29597)
# T15 construct: TYK2(JH1domain-catalytic); purchased Eurofins DiscoverX KINOMEscan
# T15 sequence (P29597 871-1187 limits assumed): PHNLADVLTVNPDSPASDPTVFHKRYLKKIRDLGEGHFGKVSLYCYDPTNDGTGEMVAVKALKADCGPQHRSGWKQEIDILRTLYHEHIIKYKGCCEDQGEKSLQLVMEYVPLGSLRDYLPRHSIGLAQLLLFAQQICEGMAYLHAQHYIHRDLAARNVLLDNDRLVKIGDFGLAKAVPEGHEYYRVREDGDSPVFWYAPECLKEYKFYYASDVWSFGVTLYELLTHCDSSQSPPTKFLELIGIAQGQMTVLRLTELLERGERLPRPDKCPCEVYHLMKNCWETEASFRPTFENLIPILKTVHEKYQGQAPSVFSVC
# T8 sequence (Q14680 whole entry): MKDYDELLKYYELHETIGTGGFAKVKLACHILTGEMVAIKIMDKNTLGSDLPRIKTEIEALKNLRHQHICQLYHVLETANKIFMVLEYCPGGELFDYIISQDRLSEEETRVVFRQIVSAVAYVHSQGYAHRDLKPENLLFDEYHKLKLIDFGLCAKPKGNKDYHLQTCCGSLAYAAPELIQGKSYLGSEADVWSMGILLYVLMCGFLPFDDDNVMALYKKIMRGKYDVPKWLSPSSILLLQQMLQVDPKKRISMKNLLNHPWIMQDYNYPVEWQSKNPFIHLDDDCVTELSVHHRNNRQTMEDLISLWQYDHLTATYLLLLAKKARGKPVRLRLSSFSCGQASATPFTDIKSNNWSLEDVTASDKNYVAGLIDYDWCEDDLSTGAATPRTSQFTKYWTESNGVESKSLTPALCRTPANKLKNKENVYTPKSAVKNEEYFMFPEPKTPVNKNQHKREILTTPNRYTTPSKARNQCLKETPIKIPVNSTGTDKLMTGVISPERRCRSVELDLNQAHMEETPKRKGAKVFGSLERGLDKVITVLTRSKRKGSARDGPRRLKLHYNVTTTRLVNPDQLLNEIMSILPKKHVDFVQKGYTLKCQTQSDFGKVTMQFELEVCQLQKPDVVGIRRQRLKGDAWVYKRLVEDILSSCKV
# T1 sequence (Q9NSY1 whole entry): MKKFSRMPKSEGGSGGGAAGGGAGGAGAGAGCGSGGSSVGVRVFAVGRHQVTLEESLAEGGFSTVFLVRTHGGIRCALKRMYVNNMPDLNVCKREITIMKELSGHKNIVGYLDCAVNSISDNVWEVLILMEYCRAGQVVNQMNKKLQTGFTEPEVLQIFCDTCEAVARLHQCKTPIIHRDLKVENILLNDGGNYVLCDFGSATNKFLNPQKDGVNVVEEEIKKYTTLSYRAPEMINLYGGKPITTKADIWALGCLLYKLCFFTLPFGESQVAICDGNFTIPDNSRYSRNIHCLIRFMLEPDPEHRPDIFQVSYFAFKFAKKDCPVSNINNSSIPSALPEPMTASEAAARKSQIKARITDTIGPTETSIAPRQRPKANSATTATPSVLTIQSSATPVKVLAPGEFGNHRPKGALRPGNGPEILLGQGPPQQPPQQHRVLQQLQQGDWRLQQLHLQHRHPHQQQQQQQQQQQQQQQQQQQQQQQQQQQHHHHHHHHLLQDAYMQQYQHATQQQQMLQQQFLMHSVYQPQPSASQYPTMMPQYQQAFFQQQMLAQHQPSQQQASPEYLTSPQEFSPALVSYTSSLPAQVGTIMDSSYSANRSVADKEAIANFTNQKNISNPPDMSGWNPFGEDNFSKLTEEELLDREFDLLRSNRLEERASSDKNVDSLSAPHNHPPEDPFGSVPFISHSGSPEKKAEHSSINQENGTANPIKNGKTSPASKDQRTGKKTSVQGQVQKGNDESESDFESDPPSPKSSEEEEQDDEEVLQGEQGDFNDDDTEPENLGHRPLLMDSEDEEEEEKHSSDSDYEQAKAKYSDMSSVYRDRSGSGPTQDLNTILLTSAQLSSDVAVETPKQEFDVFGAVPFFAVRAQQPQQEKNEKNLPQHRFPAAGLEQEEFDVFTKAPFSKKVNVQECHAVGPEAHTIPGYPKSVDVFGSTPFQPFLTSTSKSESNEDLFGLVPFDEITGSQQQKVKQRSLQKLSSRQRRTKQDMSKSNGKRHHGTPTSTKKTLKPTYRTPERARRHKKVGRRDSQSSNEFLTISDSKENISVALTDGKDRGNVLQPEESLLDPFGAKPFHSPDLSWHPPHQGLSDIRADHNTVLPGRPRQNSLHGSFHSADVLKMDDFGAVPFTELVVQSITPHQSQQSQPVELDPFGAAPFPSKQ
# T10 sequence (Q8TDX7 whole entry): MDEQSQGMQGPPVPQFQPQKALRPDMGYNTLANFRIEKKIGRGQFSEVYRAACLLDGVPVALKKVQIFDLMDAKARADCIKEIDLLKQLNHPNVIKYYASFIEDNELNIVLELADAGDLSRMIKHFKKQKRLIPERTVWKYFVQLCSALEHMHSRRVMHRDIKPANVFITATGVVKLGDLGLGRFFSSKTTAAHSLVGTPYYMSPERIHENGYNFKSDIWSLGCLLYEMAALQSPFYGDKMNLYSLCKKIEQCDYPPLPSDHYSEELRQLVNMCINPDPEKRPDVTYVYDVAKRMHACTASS
# T13 sequence (P07949 29-1114): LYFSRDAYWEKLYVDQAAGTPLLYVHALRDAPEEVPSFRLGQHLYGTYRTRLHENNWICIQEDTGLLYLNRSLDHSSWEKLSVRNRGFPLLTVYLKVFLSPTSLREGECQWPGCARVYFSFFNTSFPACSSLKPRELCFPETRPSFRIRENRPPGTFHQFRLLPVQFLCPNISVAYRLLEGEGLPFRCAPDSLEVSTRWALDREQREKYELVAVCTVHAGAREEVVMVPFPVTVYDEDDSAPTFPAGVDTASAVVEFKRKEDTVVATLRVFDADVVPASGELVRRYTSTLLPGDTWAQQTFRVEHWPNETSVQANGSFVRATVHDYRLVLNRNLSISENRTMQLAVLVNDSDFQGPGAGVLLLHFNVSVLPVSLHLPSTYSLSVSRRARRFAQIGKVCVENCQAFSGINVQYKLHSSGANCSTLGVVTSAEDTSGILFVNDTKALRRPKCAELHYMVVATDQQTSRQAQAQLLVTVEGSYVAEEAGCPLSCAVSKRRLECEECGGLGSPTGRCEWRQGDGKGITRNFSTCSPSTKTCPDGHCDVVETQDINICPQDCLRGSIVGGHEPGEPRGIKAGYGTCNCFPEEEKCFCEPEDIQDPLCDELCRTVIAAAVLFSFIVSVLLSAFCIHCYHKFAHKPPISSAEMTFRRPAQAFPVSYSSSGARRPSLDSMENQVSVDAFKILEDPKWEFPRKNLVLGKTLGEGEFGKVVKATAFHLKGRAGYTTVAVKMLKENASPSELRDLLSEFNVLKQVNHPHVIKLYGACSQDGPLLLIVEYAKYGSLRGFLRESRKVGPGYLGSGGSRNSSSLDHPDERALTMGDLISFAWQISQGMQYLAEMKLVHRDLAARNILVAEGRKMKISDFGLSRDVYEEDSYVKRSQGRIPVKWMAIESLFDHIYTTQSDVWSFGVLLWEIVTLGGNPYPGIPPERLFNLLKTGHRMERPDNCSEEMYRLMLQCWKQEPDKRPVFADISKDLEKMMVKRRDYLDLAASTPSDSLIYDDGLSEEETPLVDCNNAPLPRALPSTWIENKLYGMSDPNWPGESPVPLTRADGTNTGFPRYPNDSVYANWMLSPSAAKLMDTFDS
# T9 sequence (Q15208 whole entry): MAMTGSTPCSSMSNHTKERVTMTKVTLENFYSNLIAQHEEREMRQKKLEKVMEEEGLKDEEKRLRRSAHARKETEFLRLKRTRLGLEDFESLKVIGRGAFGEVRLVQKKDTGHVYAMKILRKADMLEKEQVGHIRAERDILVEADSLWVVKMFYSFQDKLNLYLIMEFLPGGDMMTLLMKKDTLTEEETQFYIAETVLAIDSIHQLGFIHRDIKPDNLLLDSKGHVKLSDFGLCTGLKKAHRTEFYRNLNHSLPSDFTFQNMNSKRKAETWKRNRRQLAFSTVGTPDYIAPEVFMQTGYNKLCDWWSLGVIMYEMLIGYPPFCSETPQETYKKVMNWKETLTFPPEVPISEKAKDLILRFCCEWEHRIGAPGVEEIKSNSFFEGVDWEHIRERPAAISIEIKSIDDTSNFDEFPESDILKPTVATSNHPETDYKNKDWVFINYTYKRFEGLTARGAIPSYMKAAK
# T3 sequence (P49759 whole entry): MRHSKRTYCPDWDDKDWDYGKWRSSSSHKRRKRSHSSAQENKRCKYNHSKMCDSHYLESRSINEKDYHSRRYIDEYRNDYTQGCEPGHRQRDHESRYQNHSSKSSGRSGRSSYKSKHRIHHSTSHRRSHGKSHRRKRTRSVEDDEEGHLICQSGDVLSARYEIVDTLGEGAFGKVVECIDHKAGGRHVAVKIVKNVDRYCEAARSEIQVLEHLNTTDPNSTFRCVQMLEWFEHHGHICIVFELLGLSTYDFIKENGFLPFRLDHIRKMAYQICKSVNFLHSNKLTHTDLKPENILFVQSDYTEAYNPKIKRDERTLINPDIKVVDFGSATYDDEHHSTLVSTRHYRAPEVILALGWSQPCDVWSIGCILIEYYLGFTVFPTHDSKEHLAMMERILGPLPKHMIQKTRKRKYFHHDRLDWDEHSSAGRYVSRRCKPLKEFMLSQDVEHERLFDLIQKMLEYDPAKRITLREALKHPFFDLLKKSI
# T2 sequence (Q13555 whole entry): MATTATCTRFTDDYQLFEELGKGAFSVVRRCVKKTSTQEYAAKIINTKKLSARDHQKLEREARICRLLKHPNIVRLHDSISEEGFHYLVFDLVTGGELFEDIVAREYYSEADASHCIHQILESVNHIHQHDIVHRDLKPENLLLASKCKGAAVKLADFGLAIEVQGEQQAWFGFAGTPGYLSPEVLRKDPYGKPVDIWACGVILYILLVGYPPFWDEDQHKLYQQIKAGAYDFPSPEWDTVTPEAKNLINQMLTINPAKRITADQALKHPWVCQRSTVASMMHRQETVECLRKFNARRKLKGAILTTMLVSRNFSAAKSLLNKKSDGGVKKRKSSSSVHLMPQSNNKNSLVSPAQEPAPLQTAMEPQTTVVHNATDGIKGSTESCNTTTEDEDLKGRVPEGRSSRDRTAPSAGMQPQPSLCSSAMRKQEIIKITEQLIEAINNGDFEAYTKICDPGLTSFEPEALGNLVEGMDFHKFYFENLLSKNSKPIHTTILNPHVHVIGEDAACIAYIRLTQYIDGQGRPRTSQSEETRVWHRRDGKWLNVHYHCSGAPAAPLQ
Compound,remaining binding at 1 µM [1] [%],remaining binding at 1 µM [2] [%],remaining binding at 1 µM [3] [%],remaining binding at 1 µM [4] [%],remaining binding at 1 µM [5] [%],remaining binding at 1 µM [6] [%],remaining binding at 1 µM [7] [%],remaining binding at 1 µM [8] [%],remaining binding at 1 µM [9] [%],remaining binding at 1 µM [10] [%],remaining binding at 1 µM [11] [%],remaining binding at 1 µM [12] [%],remaining binding at 1 µM [13] [%],remaining binding at 1 µM [14] [%],remaining binding at 1 µM [15] [%]
"Clc1cc(NCC2CC2)c2ncc(-c3ccc4[nH]ncc4c3)n2n1 [compound 2, 6-Chloro-N-(cyclopropylmethyl)-3-(1H-indazol-5-yl)imidazo[1,2-b]pyridazin-8-amine]",34,100,4,42,7.8,94,74,35,75,97,95,81,100,77,87
O=C(CN1CCOCC1)N[C@H]1CC[C@H](Nc2cc(Cl)nn3c(-c4ccc5[nH]ncc5c4)cnc23)CC1 [compound 26],13,52,1.2,0.65,0.7,90,86,16,96,99,71,94,100,54,100
"CN1CCC(CNc2cc(Cl)nn3c(-c4cc5nc(Nc6ccccc6)[nH]c5cc4F)cnc23)CC1 [compound 31, 6-Chloro-3-(6-fluoro-2-(phenylamino)-1H-benzo[d]imidazol-5-yl)-N-((1-methylpiperidin-4-yl)methyl)imidazo[1,2-b]pyridazin-8-amine]",91,100,16,90,27,100,86,96,86,94,92,100,96,90,74
